Assay results published in US11384113B2, “Cobalamin derivatives and their use for the treatment of diseases caused by lack of vitamin B12 supply” (Albert-Ludwigs-Universitaet Freiburg, priority 2017, dated 2022).
Numbering of substitutions follows the chain as printed. Read-outs that look alike come from different tables or passages of the source.

Tests used:
[1] = base-on to base-off equilibrium; cited from earlier work
[2] = target: T1, human recombinant CblC wild type (Homo sapiens, UniProt Q9Y4U1); type: biochemical; details: for Half-life of beta-axial ligand removal, Wild type CblC: human, pH 7.6
T1 sequence (Q9Y4U1 1-282): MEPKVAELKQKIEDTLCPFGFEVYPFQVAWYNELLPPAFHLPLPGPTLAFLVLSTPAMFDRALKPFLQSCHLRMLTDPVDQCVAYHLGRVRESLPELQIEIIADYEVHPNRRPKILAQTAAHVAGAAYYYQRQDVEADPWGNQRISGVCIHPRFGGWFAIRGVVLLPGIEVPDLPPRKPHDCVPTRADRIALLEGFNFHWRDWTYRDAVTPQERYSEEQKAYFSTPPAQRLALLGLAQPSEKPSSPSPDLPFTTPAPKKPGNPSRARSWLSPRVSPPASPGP
Description: (§1) The ability of the newly synthesized Cbl derivatives to serve as substrates for CblC was examined (FIG. 12). CblC activity was measured by UV-visible spectroscopy according to published procedures. Analysis of reaction products was performed by mass spectrometry. We measured dealkylation and de-thiolation of Co—C and Co—S bonded Cbl derivatives, respectively, by wild type and mutant CblC proteins to determine whether these reactions could be supported in patients harboring an abnormal isoform of CblC with low or no enzymatic activity.
The enzymatic activity of CblC in the presence of CyaCbl and MPGCbl as substrates was evaluated under the same experimental conditions utilized to examine dealkylation of MeCbl and AdoCbl. […] The reaction was complete in less than 10 seconds, which is the time it takes to record the first spectrum after mixing of CblC-bound to CyaCbl or MPGCbl with 5 mM GSH (FIG. 12).
(§2) First, the ability of novel cobalamins described herein was tested to act as substrate for wild type CblC and to restore the lost activity of pathogenic variants, such as mutant Arg161Gly, that leads to early-onset form of the cblC disease.

[3] = tested on: fibroblasts isolated from patients with cblC disease; assay: MMA in conditioned medium of cblC patient fibroblasts; type: cell-based, human
Text: (§3) Cultured cells from control (healthy neonatal subjects) or cblC fibroblasts were supplemented without exogenous Cbl (negative control), with commercial CNCbl (current therapy control) or with the newly synthesized cobalamins (test group). The ability of these compounds to support intracellular Cbl metabolism in the absence of CblC was examined by monitoring disease biomarker metabolites Hcy and MMA levels in the conditioned medium.
(§4) The cellular response to treatment with new derivatives CyaCbl and MPGCbl in comparison with current therapeutic form CNCbl was measured. The ability of the new cobalamin derivatives CyaCbl and MPGCbl to achieve metabolic control, i.e. reduction of for example MMA production by cblC fibroblasts in culture, was examined as described in previously published experimental protocols. FIG. 13 provides a comparison of the effect of CNCbl (0.001 mM) versus the same dose of CyaCbl or MPGCbl given to cultured fibroblasts from healthy subjects (HFF, NHDF, PCS, Wiesel, Control) or from cblC patients (WG1801, WG2176, WG3354, GM10011, GM02345B, GM02452C).
(§5) Additional examination of the effect of thiolatocobalamins CyaCbl and MPGCbl and sulfur-containing alkylcobalamin Me-S-MeCbl with respect to structural analogues that are NOT available for therapy was also carried out, for comparative purposes. The results of cellular response (healthy controls and cblC patient fibroblasts) to cobalamin treatment, as reflected by MMA levels is provided in Table 6.

[4] = electrochemical; 20° C.; cited from earlier work
[5] = tested on: fibroblasts from healthy subjects; assay: MMA in conditioned medium of control fibroblasts; type: cell-based, human
Text: as §3, §4, §5

[6] = target: T2, human recombinant CblC pathogenic mutant Arg161Gly (Homo sapiens, UniProt Q9Y4U1, R161G); type: biochemical; details: for Half-life of beta-axial ligand removal, Mutant Arg161Gly: human, pH 7.6
T2 sequence (Q9Y4U1 1-282 R161G): T1 sequence (Q9Y4U1 1-282) with R161G
Description: as §1, §2

[7] = Concentration-dependent reaction rate of aquacobalamin with thiol ligand forming thiolatocobalamin (time-resolved UV-visible spectroscopy); type: physicochemical; details: pH 7.2, l = 1, sodium triflate
Description: The UV-visible spectra of newly synthesized cobalamin derivatives was determined in EPPS buffer (40 mM, pH 7.6, l=1.0 M with sodium triflate). The reaction of aquacobalamin with cysteamine and mercaptopropionylglycine was monitored by time-resolved spectral scanning of reactions containing a fixed amount of aquacobalamin (10-25 μM (micromolar)) and various concentrations of the ligand.
Mercaptopropionylglycine reacted readily with aquacobalamin to form a stable MPGCbl complex at pH 7.2.
A fixed concentration of aquacobalamin was reacted with varying concentrations of the ligand MPG. The reaction was monitored by time-resolved UV-visible spectroscopy for a total of 50 minutes (FIG. 5). The spectral changes were consistent with the conversion of aquacobalamin into MPGCbl (FIG. 5 a) via a mechanism that involves no detectable reaction intermediates. Initial and final spectra are analyzed to confirm the identity of the thiolatocobalamin product (FIG. 5 b). Time courses were generated at the absorption maxima of each species (350 nm, H2OCbl^+, and 372 nm, MPGCbl) (FIG. 5 c).

[8] = tested on: cultured fibroblasts; assay: Cytotoxicity and cellular transport observed in cultured fibroblast experiments; type: cell-based, human
[9] = target: T3, human wild type CblC (Homo sapiens, UniProt Q9Y4U1); assay: Binding to CblC and conversion to base-off configuration (UV-visible spectrophotometry); details: pH 7.6, EPPS buffer 0.04 M
T3 sequence (Q9Y4U1 1-282): T1 sequence (Q9Y4U1 1-282)
Description: An important aspect for the bioactivity of the new compounds is their ability to bind to the processing enzyme CblC, and to undergo conversion to the base-off configuration, which enhances their reactivity. This is a critical step in all intracellular pathways of vitamin B12 metabolism that are involved in pathogenesis, and certainly, relevant to the cblC disease itself. […] Binding studies were conducted at pH 7.6 (EPPS buffer, 0.04 M) and analyzed by UV-visible spectrophotometry.

[10] = target: T1, human recombinant CblC wild type; type: biochemical; details: dethiolation; 50 μM GSH
[11] = pH 7.72, l = 0.5, KNO3; cited from earlier work
[12] = GM02345B cblC fibroblasts, after 7 days
[13] = GM02452C cblC fibroblasts, after 7 days
[14] = GM10011 cblC fibroblasts, after 7 days
[15] = WG1801 cblC fibroblasts, after 7 days
[16] = WG2176 cblC fibroblasts, after 7 days
[17] = WG3354 cblC fibroblasts, after 7 days
[18] = cblC patients (group value), after 7 days
[19] = cblC patients, after 7 days wash-off period without supplemental cobalamin
[20] = Controls (group value), after 7 days
[21] = Controls, after 7 days wash-off period without supplemental cobalamin
[22] = HFF control fibroblasts, after 7 days
[23] = NHDF control fibroblasts, after 7 days
[24] = Wiezel control fibroblasts, after 7 days

| Structure (SMILES) | Half-life of beta-axial ligand removal, Wild type CblC [2] | MMA in conditioned medium [3, 12] | MMA in conditioned medium [3, 13] | MMA in conditioned medium [3, 14] | MMA in conditioned medium [3, 15] | MMA in conditioned medium [3, 16] | MMA in conditioned medium [3, 17] | MMA in conditioned medium [3, 18] | MMA in conditioned medium [3, 19] | MMA in conditioned medium [5, 20] | MMA in conditioned medium [5, 21] | MMA in conditioned medium [5, 22] | MMA in conditioned medium [5, 23] | MMA in conditioned medium [5, 24] | Half-life of beta-axial ligand removal, Mutant Arg161Gly [6] | other results |
| --- | --- | --- | --- | --- | --- | --- | --- | --- | --- | --- | --- | --- | --- | --- | --- | --- |
| C/C1=C2/[N-][C@H]([C@H](CC(N)=O)[C@@]2(C)CCC(=O)NC[C@H](C)OP(=O)([O-])O[C@H]2[C@@H](O)[C@@H](n3cnc4cc(C)c(C)cc43)O[C@@H]2CO)[C@]2(C)N=C(/C(C)=C3N=C(/C=C4N=C1[C@@H](CCC(N)=O)C\4(C)C)[C@@H](CCC(N)=O)[C@]\3(C)CC(N)=O)[C@@H](CCC(N)=O)[C@]2(C)CC(N)=O.[CH3-].[Co+3] [MeCbl, Methylcobalamin, reference compound] | 10 min | 0.250 μmol/mg protein | 0.243 μmol/mg protein | 0.066 μmol/mg protein | 0.429 μmol/mg protein | 0.459 μmol/mg protein | 0.891 μmol/mg protein | 0.390 μmol/mg protein | 0.298 μmol/mg protein | 0.118 μmol/mg protein | 0.131 μmol/mg protein | 0.106 μmol/mg protein | 0.152 μmol/mg protein | 0.095 μmol/mg protein | 60 min | pKa of base on/base off [1]: 2.90; Product under ambient conditions, Wild type CblC ([2]; dealkylation, 5 mM GSH): H2OCbl; Redox potential [V] relative to NHE [4]: −1.20 V; Product under ambient conditions, Mutant Arg161Gly ([6]; dealkylation, 5 mM GSH): Cob(II)alamin |
| CC1=C2N=C(C=C3N=C(C(C)=C4[N-]C(C(CC(N)=O)C4(C)CCC(=O)NCC(C)OP(=O)([O-])OC4C(CO)OC(n5cnc6cc(C)c(C)cc65)C4O)C4(C)N=C1C(CCC(N)=O)C4(C)CC(N)=O)C(CCC(N)=O)C3(C)C)C(CCC(N)=O)C2(C)CC(N)=O.NCC[S][Co+2] (stereo not shown) [CyaCbl] | <0.5 min | 0.217 μmol/mg protein | 0.369 μmol/mg protein | 0.208 μmol/mg protein | 0.194 μmol/mg protein | 0.189 μmol/mg protein | 0.114 μmol/mg protein | 0.215 μmol/mg protein | 0.190 μmol/mg protein | 0.141 μmol/mg protein | 0.154 μmol/mg protein | 0.095 μmol/mg protein | 0.184 μmol/mg protein | 0.144 μmol/mg protein | 2.1 min | K, concentration-dependent reaction rate (formation from aquacobalamin) [7]: 28.66 M⁻¹ s⁻¹; Product of the reaction ([2]; cobalamin bound to human CblC, in the presence of GSH): H2OCbl^+; Reduction of MMA to the levels of healthy fibroblasts, compared with CNCbl ([3]; 0.001 mM, same dose as CNCbl, FIG. 13): far superior compared to CNCbl; Transport into the cells ([8]; canonical TC transporter and its cellular receptor CD320): transported successfully into the cells; Cytotoxicity ([8]; under the experimental conditions of the fibroblast cultures): not cytotoxic; Effect of binding to human wild type CblC on configuration [9]: induces their base-off configuration; Product under ambient conditions, Mutant Arg161Gly ([6]; dethiolation, 50 μM GSH): H2OCbl; Product under ambient conditions, Wild type CblC [10]: H2OCbl |
| CC(C[S][Co+2])C(=O)N1CCCC1C(=O)O.CC1=C2N=C(C=C3N=C(C(C)=C4[N-]C(C(CC(N)=O)C4(C)CCC(=O)NCC(C)OP(=O)([O-])OC4C(CO)OC(n5cnc6cc(C)c(C)cc65)C4O)C4(C)N=C1C(CCC(N)=O)C4(C)CC(N)=O)C(CCC(N)=O)C3(C)C)C(CCC(N)=O)C2(C)CC(N)=O (stereo not shown) [CaptoprilCbl] |  |  |  |  |  |  |  |  |  |  |  |  |  |  |  | K, concentration-dependent reaction rate (formation from aquacobalamin) [11]: 24.7 M⁻¹ s⁻¹ |
